These results are taken from patent EP0799174B1, “BIOCIDAL ALCOHOLS, THEIR PRODUCTION AND THEIR USE” (SCHÜLKE & MAYR GMBH, priority 1994, dated 1996).

The subject of experiment [1] is Candida albicans ATCC 10231. The experiment is described as follows: MIC values, water-soluble (inhibition titre, dilution series in CSL). It is filed as cell-based. The method, then: (§1) Standard formulation: • Rewopal MPG 40 25.0 g • aromatic alcohol 10 mmol • dem.* water to 100 g • lactic acid for adjusting the pH value to 7.0 q.s.
(§2) In sterile test tubes, 5 ml each of the dilutions of the disinfectant in WSH (water of standardized hardness) are mixed with 5 ml double-concentrated casein peptone soybean flour peptone solution (CSL) or CSL and deactivating substances.
(§3) To determine the bacteriostatic action on Staphylococcus aureus and Proteus mirabilis the tubes are inoculated by adding 0.1 ml of a CSL culture diluted 1:10 with CSL and incubated for 24 h at 37°C.
(§4) To test the fungistatic action, 0.1 ml of an undiluted CSL culture of Candida albicans which has been incubated at 37°C for 72 h is used in each case. Evaluation takes place after 72 h at 37°C.
(§5) The highest dilution of the preparation in CSL or CSL and deactivating substances that still suppresses growth of the test germs after […] incubation serves as the measure of the multiplication-inhibiting action (inhibition titre).
(§6) In the case of the disinhibition tests, the culture media are to be adjusted to a pH value of 7.0 ± 0.2 according to the state of the disinfectant.
(§7) Standard formulation: • aromatic alcohol 5.0 % • Brij 58 5.0 % • 1,3-butanediol to 100 • Test germs: see above • Test method: see above

In experiment [2] the test system is Staphylococcus aureus ATCC 6538. Described as above. It is filed as cell-based. The method, then:
as §1, §2, §3, §4, §5, §6, §7

Experiment [3] deals with Proteus vulgaris NCTC 4635. The experiment is described as above. It counts as cell-based.
Experiment [4] relates to Penicillium funiculosum ATCC 36839. The description is as above. It is filed as cell-based.
Experiment [5] relates to Aspergillus niger ATCC 6275. The description is as above. It counts as cell-based.
Experiment [6] concerns Microsporon gypseum. The experiment is described as follows: Foot spray: minimum inhibition concentration. It is filed as cell-based. Conditions: foot spray formula: 2-propanol 40.0%, aromatic alcohol 0.2 %, allantoin 0.5 %, dem. water to 100. The source says:
(§8) Formula: • 2-propanol 40.0% • aromatic alcohol 0.2 % • allantoin 0.5 % • dem. water to 100 Test germs: special skin fungi such as Trichophyton rubrum, Trichophyton mentagrophytes (ATCC 9533), Microsporon gypseum Test method: Determination of the minimum inhibition concentration (method see under 1.) Data in %

The subject of experiment [7] is Trichophyton mentagrophytes (ATCC 9533). The experiment is described as follows: Foot spray: minimum inhibition concentration. It counts as cell-based. As to conditions: foot spray formula: 2-propanol 40.0%, aromatic alcohol 0.2 %, allantoin 0.5 %, dem. water to 100.
From the text: as §8

The test system of experiment [8] is Trichophyton rubrum. The experiment is described as follows: Foot spray: minimum inhibition concentration. It is filed as cell-based. Conditions: foot spray formula: 2-propanol 40.0%, aromatic alcohol 0.2 %, allantoin 0.5 %, dem. water to 100.
From the text: as §8

Experiment [9] has as its system Microsporon gypseum. The experiment is described as follows: Foot spray: agar diffusion test. It is filed as cell-based. As to conditions: foot spray formula with aromatic alcohol 0.2 %. An excerpt: (§9) Formula: • 2-propanol 40.0% • aromatic alcohol 0.2 % • allantoin 0.5 % • dem. water to 100 Test germs: special skin fungi such as Trichophyton rubrum, Trichophyton mentagrophytes (ATCC 9533), Microsporon gypseum Test method: Determination of the minimum inhibition concentration (method see under 1.) Data in % Test germs: special skin fungi such as Trichophyton rubrum, Trichophyton mentagrophytes, Microsporon gypseum Test method: Agar diffusion test Data as millimetres inhibition zone
(In agar diffusion tests the substance spreads into inoculated agar from a disc or well.)

Experiment [10] deals with Trichophyton mentagrophytes. The experiment is described as follows: Foot spray: agar diffusion test. As to conditions: foot spray formula with aromatic alcohol 0.2 %. It is filed as cell-based.
From the text: as §9

The subject of experiment [11] is Trichophyton rubrum. The experiment is described as follows: Foot spray: agar diffusion test. Conditions: foot spray formula with aromatic alcohol 0.2 %. It is filed as cell-based.
From the text: as §9

The test system of experiment [12] is Microsporon luteus ATCC 15442. The experiment is described as follows: Skin antiseptic a): test on skin of subjects, contamination after 1 h, ring method. It is filed as in vivo. Conditions: aromatic alcohol 1.0% in 1-propanol 30.0%, 2-propanol 45.0%, 0.2 ml on 10cm^2 skin, germs removed after 15 minutes, average of all 10 subjects. The method, then: • 1-propanol 30.0% • 2-propanol 45.0% • aromatic alcohol 1.0% • dem. water to 100 Test germ: Microsporon luteus ATCC 15442 Test method: Apply 0.2 ml preparation to 10cm^2 skin, allow to dry, cover with TEGADERM® film and leave to work for 1 h, contaminate with 0.1 ml germ suspension, remove after 15 minutes with ring method Reference: Control against Neo-Kodan® Number of subjects: 10 subjects

A short description of experiment [13]: Skin antiseptic a): suspension test according to DGHM. It is filed as cell-based. As to conditions: formulation with 1.0% aromatic alcohol in 1-propanol 30.0%, 2-propanol 45.0%; concentration and time.
The test system of a further experiment is resident skin flora. The experiment is described as follows: Skin antiseptic a): action against the resident skin flora. It is filed as in vivo. Conditions: formulation with 1.0% aromatic alcohol in 1-propanol 30.0%, 2-propanol 45.0%; concentration and time.
In experiment [14] the test system is Mycobacterium terrae ATCC 15755. The experiment is described as follows: Germ carrier experiment with standard cotton. Conditions: Rewopal MPG 40 25.0%, aromatic alcohol 2.0 %, dem. water to 100. Set-up: key: E: individual colonies; M: several colonies; +: weak growth; ++: moderate growth; +++: heavy growth; ++++: very heavy growth; ∞: lawn growth. It is filed as cell-based. The method, then:
• Rewopal MPG 40 25.0% • aromatic alcohol 2.0 % • dem. water to 100
The bacteria are elutriated with 5 ml CSL from a 24 h-old (37°C) culture onto CSA plates measuring approx. 9 cm in diameter, the suspension being diluted with CSL if necessary. The number of CFU/ml is to be determined using surface culture. It should be > 10^9/ml.
The sterilized and dried germ carriers are introduced into the bacterial suspension and left in it for 15 minutes, during which they are turned over twice.
A number (4) of contaminated, thoroughly impregnated germ carriers, corresponding to the proposed removal times - 15, 30, 60 and 120 minutes - is placed in a small dish and 10 ml of the disinfectant solution to be tested in WSH are poured over them. Air bubbles are to be removed by repeated turning of the germ carriers.
After the corresponding action times, the germ carriers are to be removed from the disinfectant solution, and after rinsing twice in each case for 1 min in 10 ml ML solution (see Appendix) to which the deactivating substances were optionally added, the germ carriers are placed onto the surface of a Löwenstein-Jensen nutrient medium with tweezers and moved backwards and forwards 3 to 4 times using light pressure. After inoculating the nutrient medium surface the small cloth is to remain lying directly above the condensed water level of the nutrient medium.
Germ carriers pre-treated in the same way, but kept in WSH for 120 minutes instead of in disinfectant solution are to be inoculated as a control. The inoculated tubes are incubated at 37°C for 3 weeks.

Where [15] appears, read: standard formulation: Rewopal MPG 40 25.0 g, aromatic alcohol 10 mmol, dem. water to 100 g, pH 7.0.
Setting [16] is: standard formulation: aromatic alcohol 5.0 %, Brij 58 5.0 %, 1,3-butanediol to 100.

For `CCCCCC(=Cc1ccccc1)CO` [Alcohol 8, α-amyl cinnamyl alcohol], in experiment [1] (setting [15]), the “MIC (minimum inhibiting concentration) C. albicans” value is 313 μmol/100 ml test solution. Besides, the “MIC (minimum inhibiting concentration) S. aureus” value in experiment [2] (setting [15]) is on record as 39 μmol/100 ml test solution. Further, the “MIC (minimum inhibiting concentration) P. vulgaris” value in [3] (setting [15]) was 1,250 μmol/100 ml test solution. In addition, in [4] (setting [15]), the “MIC (minimum inhibiting concentration) P. funi.” value is listed as 313 μmol/100 ml test solution. Besides, in [5] (setting [15]), the “MIC (minimum inhibiting concentration) A. niger” value is 156 μmol/100 ml test solution. The “minimum inhibition concentration, M. gypseum” value in the experiment with Microsporon gypseum [6] stood at 1.56%. In addition, the “minimum inhibition concentration, T. mentagrophytes” value in experiment [7] amounted to 1.56%. Further, the “minimum inhibition concentration, T. rubrum” value in the experiment with Trichophyton rubrum [8] came to 1.56%. The “inhibition zone, M. gypseum” value in the experiment with Microsporon gypseum [9] (use concentration 50%) is 10 mm; in the experiment on Microsporon gypseum [9] (use concentration 100%), 19 mm. The “inhibition zone, T. mentagrophytes” value is 14 mm in [10] (use concentration 50%) and 22 mm in experiment [10] (use concentration 100%). For the same compound, the “inhibition zone, T. rubrum” value with Trichophyton rubrum [11] (use concentration 50%) amounted to 14 mm; with Trichophyton rubrum [11] (use concentration 100%) it was 23 mm. For the same compound, the “Average value of RF (reduction factors)” value in [12] worked out at 1.9 log stages. The “values in the suspension test according to DGHM” value in experiment [13] is 50%, 30 seconds. Besides, the “action against the resident skin flora” value in the experiment on resident skin flora is 100%, 15 seconds. Moreover, the “growth of M. terrae after action time 15'” value in [14] is “+++”. Also, the “growth of M. terrae after action time 30'” value in [14] is “++”. In addition, the “growth of M. terrae after action time 60'” value in experiment [14] is on record as “+”. For the same compound, in experiment [14], the “growth of M. terrae after action time 120'” value is recorded as “E”.

For `OCCCc1ccccc1` [Alcohol 1, 3-phenyl propanol, reference compound], the “MIC (minimum inhibiting concentration) C. albicans” value in [1] (setting [15]) turned out to be 625 μmol/100 ml test solution; in experiment [1] (setting [16]) it was 625 µmol/100 ml test solution. The “MIC (minimum inhibiting concentration) S. aureus” value is 1,250 μmol/100 ml test solution in experiment [2] (setting [15]) and 1,250 µmol/100 ml test solution in [2] (setting [16]). The “MIC (minimum inhibiting concentration) P. vulgaris” value was 625 μmol/100 ml test solution in experiment [3] (setting [15]) and 625 µmol/100 ml test solution in experiment [3] (setting [16]). Besides, the results for the “MIC (minimum inhibiting concentration) P. funi.” value in experiment [4] (setting [15]) and in experiment [4] (setting [16]) were 313 μmol/100 ml test solution and 313 µmol/100 ml test solution, respectively. The “MIC (minimum inhibiting concentration) A. niger” value is recorded as 625 μmol/100 ml test solution in [5] (setting [15]) and 625 µmol/100 ml test solution in experiment [5] (setting [16]). Also, the “minimum inhibition concentration, M. gypseum” value in the experiment with Microsporon gypseum [6] is on record as 6.25%. For the same compound, the “minimum inhibition concentration, T. mentagrophytes” value in experiment [7] came to 6.25%. Also, the “minimum inhibition concentration, T. rubrum” value in the experiment with Trichophyton rubrum [8] came to 6.25%. In the experiment on Microsporon gypseum [9] (use concentration 100%), the “inhibition zone, M. gypseum” value is 0 mm. Moreover, the “inhibition zone, T. mentagrophytes” value in [10] (use concentration 100%) stood at 0 mm. Besides, in the experiment on Trichophyton rubrum [11] (use concentration 100%), the “inhibition zone, T. rubrum” value is on record as 0 mm. Also, in experiment [12], the “Average value of RF (reduction factors)” value worked out at 0 log stages. For the same compound, the “growth of M. terrae after action time 15'” value in [14] is “++++”. Moreover, in [14], the “growth of M. terrae after action time 30'” value is given as “++++”. In [14], the “growth of M. terrae after action time 60'” value is recorded as “+++”. Besides, in [14], the “growth of M. terrae after action time 120'” value is reported as “+++”.
